From paper PMC10139140, “Synthesis of Novel 2-(Cyclopentylamino)thiazol-4(5H)-one Derivatives with Potential Anticancer, Antioxidant, and 11β-HSD Inhibitory Activities” (International Journal of Molecular Sciences, 2023)
Values belong to the compound of their own block, whether it stands above or below them.

Key:
[1] = target: T1, 11β-HSD2 (Homo sapiens, UniProt P80365); assay: Inhibition of 11β-HSD2 (cortisol to cortisone, human microsomes, cortisol ELISA); type: biochemical; details: 2.5 h, 37 °C
T1 construct: Human liver microsomes were used as a source of 11β-HSD2 enzyme; tissue XenoTech Lot No. 1710160; host or cells: human kidney microsomes, mixed gender (method text says human liver microsomes)
T1 sequence (P80365 1-405): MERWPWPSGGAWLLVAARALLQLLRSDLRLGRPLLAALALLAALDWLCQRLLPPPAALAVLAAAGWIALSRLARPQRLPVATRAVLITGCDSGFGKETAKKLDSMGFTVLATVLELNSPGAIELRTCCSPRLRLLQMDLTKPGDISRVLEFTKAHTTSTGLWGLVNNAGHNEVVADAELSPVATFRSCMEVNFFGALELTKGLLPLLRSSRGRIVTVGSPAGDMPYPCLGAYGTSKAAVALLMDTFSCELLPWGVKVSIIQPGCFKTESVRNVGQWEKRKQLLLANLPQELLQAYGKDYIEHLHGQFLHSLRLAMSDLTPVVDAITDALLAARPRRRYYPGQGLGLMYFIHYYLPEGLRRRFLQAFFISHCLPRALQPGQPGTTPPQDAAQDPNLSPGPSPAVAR
Procedure: The resulting solution with a final volume of 100 µL was incubated for 2.5 h at 37 °C. […] The level of unreacted cortisol was measured by a commercially available ELISA kit.

[2] = tested on: glioma (U-118 MG); assay: MTS metabolic activity assay, U-118 MG cells; type: cell-based; details: Homo sapiens, U-118-MG, U118-MG, 72 h, read-out: Cell metabolic activity (MTS), % of untreated control
Outline: (§1)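 Metabolic activity was measured by MTS reduction following a 72 h exposure to a range of compound concentrations. Cells had been plated 24 h beforehand at standard density, with fewer BJ cells per well. Values are percentages relative to untreated controls.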

[3] = tested on: BJ cells; assay: MTS metabolic activity assay, BJ cells; type: cell-based; details: Homo sapiens, 72 h, read-out: Cell metabolic activity (MTS), % of untreated control
Outline: as §1

[4] = tested on: human pancreatic carcinoma (PANC-1); assay: MTS metabolic activity assay, PANC-1 cells; type: cell-based; details: for viability at 10 µM / viability at 20 µM / viability at 50 µM / viability at 100 µM / viability at 200 µM / viability at 300 µM / viability at 500 µM: Homo sapiens, 72 h, read-out: Cell metabolic activity (MTS), % of untreated control; for viability at 10 µM: PANC-1, 10 µM; for viability at 20 µM: PANC-1, 20 µM; for viability at 50 µM: PANC-1, 50 µM; for viability at 100 µM: PANC-1, 100 µM; for viability at 200 µM: PANC-1, 200 µM; for viability at 300 µM: PANC-1, 300 µM; for viability at 500 µM: PANC-1, 500 µM
Outline: as §1

[5] = tested on: human colon carcinoma (Caco-2); assay: MTS metabolic activity assay, Caco-2 cells; type: cell-based; details: 72 h; for viability at 10 µM / viability at 20 µM / viability at 50 µM / viability at 100 µM / viability at 200 µM / viability at 300 µM / viability at 500 µM: Homo sapiens, read-out: Cell metabolic activity (MTS), % of untreated control; for viability at 10 µM: Caco-2, 10 µM; for viability at 20 µM: Caco-2, 20 µM; for viability at 50 µM: Caco-2, 50 µM; for viability at 100 µM: Caco-2, 100 µM; for viability at 200 µM: Caco-2, 200 µM; for viability at 300 µM: Caco-2, 300 µM; for viability at 500 µM: Caco-2, 500 µM
Outline: as §1

[6] = target: T2, 11β-HSD1 (Homo sapiens, UniProt P28845); assay: Inhibition of 11β-HSD1 (cortisone to cortisol, human liver microsomes, cortisol ELISA); type: biochemical; details: for inhibition at 10 µM: 2.5 h, 37 °C
T2 construct: Human liver microsomes were used as a source of 11β-HSD1 enzyme; tissue XenoTech Lot No. 1410013; host or cells: pooled human liver microsomes, mixed gender
Outline: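 Human liver microsomal conversion of cortisone to cortisol, incubated 2.5 h at 37 °C and stopped with 18β-glycyrrhetinic acid. Cortisol was quantified by ELISA against inhibitor-free controls.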

[7] = tested on: human breast carcinoma (MDA-MB-231); assay: MTS metabolic activity assay, MDA-MB-231 cells; type: cell-based; details: 72 h; for viability at 10 µM / viability at 20 µM / viability at 50 µM / viability at 100 µM / viability at 200 µM / viability at 300 µM / viability at 500 µM: Homo sapiens, read-out: Cell metabolic activity (MTS), % of untreated control; for viability at 10 µM: MDA-MB-231, 10 µM; for viability at 20 µM: MDA-MB-231, 20 µM; for viability at 50 µM: MDA-MB-231, 50 µM; for viability at 100 µM: MDA-MB-231, 100 µM; for viability at 200 µM: MDA-MB-231, 200 µM; for viability at 300 µM: MDA-MB-231, 300 µM; for viability at 500 µM: MDA-MB-231, 500 µM; for cell viability, decreases to: MDA-MB-231, higher concentrations, range given for the most effective substances together
Outline: as §1

[8] = tested on: skin melanoma (SK-MEL-30); assay: MTS metabolic activity assay, SK-MEL-30 cells; type: cell-based; details: 72 h; for viability at 10 µM / viability at 20 µM / viability at 50 µM / viability at 100 µM / viability at 200 µM / viability at 300 µM / viability at 500 µM: Homo sapiens, read-out: Cell metabolic activity (MTS), % of untreated control; for viability at 10 µM: SK-MEL-30, 10 µM; for viability at 20 µM: SK-MEL-30, 20 µM; for viability at 50 µM: SK-MEL-30, 50 µM; for viability at 100 µM: SK-MEL-30, 100 µM; for viability at 200 µM: SK-MEL-30, 200 µM; for viability at 300 µM: SK-MEL-30, 300 µM; for viability at 500 µM: SK-MEL-30, 500 µM; for cell viability, decreases to: SK-MEL-30, higher concentrations, range given for the most effective substances together
Outline: as §1

T2 sequence (P28845 whole entry): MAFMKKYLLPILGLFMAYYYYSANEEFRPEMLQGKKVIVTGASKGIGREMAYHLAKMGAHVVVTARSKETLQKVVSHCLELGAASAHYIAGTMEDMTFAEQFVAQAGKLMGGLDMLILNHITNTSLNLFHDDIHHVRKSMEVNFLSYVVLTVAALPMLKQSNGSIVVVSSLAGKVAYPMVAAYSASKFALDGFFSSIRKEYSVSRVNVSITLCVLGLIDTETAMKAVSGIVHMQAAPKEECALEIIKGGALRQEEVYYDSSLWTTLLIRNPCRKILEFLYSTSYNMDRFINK

inhibition at 10 µM [1]: 38.6 ± 1.39%
IC50 [6]: 0.18 ± 0.03 µM
inhibition at 10 µM [6]: 87 ± 2.17%
SMILES: O=C1N=C(NC2CCCC2)SC1c1ccc(Br)cc1 (stereo not drawn) [Compound 3g, 2-(cyclopentylamino)-5-(4-bromophenyl)thiazol-4(5H)-one]
viability at 10 µM [2]: 114%
viability at 20 µM [2]: 110%
viability at 50 µM [2]: 105%
viability at 100 µM [2]: 104%
viability at 200 µM [2]: 87.3%
viability at 300 µM [2]: 40.6%
viability at 500 µM [2]: 32.3%
viability at 10 µM [3]: 99.7%
viability at 20 µM [3]: 97.8%
viability at 50 µM [3]: 90.8%
viability at 100 µM [3]: 88.1%
viability at 200 µM [3]: 84.2%
viability at 300 µM [3]: 57.3%
viability at 500 µM [3]: 55.4%
viability at 10 µM [4]: 116%
viability at 20 µM [4]: 122%
viability at 50 µM [4]: 145%
viability at 100 µM [4]: 139%
viability at 200 µM [4]: 94.1%
viability at 300 µM [4]: 57.9%
viability at 500 µM [4]: 57.2%
highest increase in proliferation (cell metabolic activity) ([4]; PANC-1, 72 h, range given for the named substances together): 115 to 144%
cell viability, decreases to ([5]; Caco-2, higher concentrations, range given for the most effective substances together): 20–65%
viability at 10 µM [5]: 91.9%
viability at 20 µM [5]: 88.8%
viability at 50 µM [5]: 87.3%
viability at 100 µM [5]: 80.7%
viability at 200 µM [5]: 56.3%
viability at 300 µM [5]: 30.1%
viability at 500 µM [5]: 30.9%
viability at 10 µM [7]: 92.9%
viability at 20 µM [7]: 93.6%
viability at 50 µM [7]: 84.6%
viability at 100 µM [7]: 82%
viability at 200 µM [7]: 61.4%
viability at 300 µM [7]: 43.9%
viability at 500 µM [7]: 38%
cell viability, decreases to [7]: 20–65%
viability at 10 µM [8]: 95.4%
viability at 20 µM [8]: 97.5%
viability at 50 µM [8]: 98.3%
viability at 100 µM [8]: 93.1%
viability at 200 µM [8]: 71.5%
viability at 300 µM [8]: 29.7%
viability at 500 µM [8]: 25.2%
cell viability, decreases to [8]: 20–65%

inhibition at 10 µM [1]: 37.7 ± 6.07%
IC50 [6]: 2.75 ± 0.12 µM
inhibition at 10 µM [6]: 56.6 ± 6.11%
SMILES: CCCC1SC(NC2CCCC2)=NC1=O (stereo not drawn) [Compound 3c, 2-(cyclopentylamino)-5-propylthiazol-4(5H)-one]
viability at 10 µM [2]: 111%
viability at 20 µM [2]: 110%
viability at 50 µM [2]: 110%
viability at 100 µM [2]: 114%
viability at 200 µM [2]: 113%
viability at 300 µM [2]: 112%
viability at 500 µM [2]: 112%
viability at 10 µM [3]: 98.2%
viability at 20 µM [3]: 99.7%
viability at 50 µM [3]: 102%
viability at 100 µM [3]: 108%
viability at 200 µM [3]: 112%
viability at 300 µM [3]: 111%
viability at 500 µM [3]: 115%
viability at 10 µM [4]: 108%
viability at 20 µM [4]: 106%
viability at 50 µM [4]: 112%
viability at 100 µM [4]: 114%
viability at 200 µM [4]: 116%
viability at 300 µM [4]: 115%
viability at 500 µM [4]: 122%
viability at 10 µM [5]: 88.1%
viability at 20 µM [5]: 86.6%
viability at 50 µM [5]: 87.6%
viability at 100 µM [5]: 82%
viability at 200 µM [5]: 86.1%
viability at 300 µM [5]: 83.1%
viability at 500 µM [5]: 68.5%
viability at 10 µM [7]: 101%
viability at 20 µM [7]: 102%
viability at 50 µM [7]: 99.1%
viability at 100 µM [7]: 97.4%
viability at 200 µM [7]: 88.4%
viability at 300 µM [7]: 75.9%
viability at 500 µM [7]: 55%
cell viability, decreases to [7]: 20–65%
viability at 10 µM [8]: 101%
viability at 20 µM [8]: 102%
viability at 50 µM [8]: 101%
viability at 100 µM [8]: 101%
viability at 200 µM [8]: 95.9%
viability at 300 µM [8]: 75%
viability at 500 µM [8]: 45.5%
cell viability, decreases to [8]: 20–65%
